Experiments:
[1] = target: T1, Full length human recombinant HDAC11 (Homo sapiens, UniProt Q96DB2); assay: In vitro histone deacetylase assay, enzymatic HDAC11 (electrophoretic mobility shift assay); type: biochemical; settings: 10 nM HDAC11; 2 μM peptide substrate FAM-RHKK(tri-fluor-Ac)—NH2; 25° C.; 12 concentrations; read-out: HDAC11 Activity Range (IC50)
T1 construct: Full length human recombinant HDAC6 and HDAC11 proteins were expressed in baculoviral system
T1 sequence (Q96DB2 1-347): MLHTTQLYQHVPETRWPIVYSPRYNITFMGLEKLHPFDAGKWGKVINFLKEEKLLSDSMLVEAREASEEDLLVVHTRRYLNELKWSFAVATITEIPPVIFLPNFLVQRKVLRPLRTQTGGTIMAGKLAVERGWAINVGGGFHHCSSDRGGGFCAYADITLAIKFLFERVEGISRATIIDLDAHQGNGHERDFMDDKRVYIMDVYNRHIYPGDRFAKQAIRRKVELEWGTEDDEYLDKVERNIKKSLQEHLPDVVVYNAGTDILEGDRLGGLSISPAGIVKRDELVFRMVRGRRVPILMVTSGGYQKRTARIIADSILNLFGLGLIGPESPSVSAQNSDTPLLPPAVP
Outline: (§1)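 Baculovirus-expressed full-length enzymes (HDAC6 1 nM, FAM-RHKK(Ac)-NH2; HDAC11 10 nM, FAM-RHKK(tri-fluor-Ac)-NH2), 2 μM substrate, HEPES pH 7.5, 25°C, 12-point 3× dilutions. Product/substrate separated by microfluidic mobility shift after SDS quench; IC50 from 4-parameter fit, reported as +/++/+++ bins.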

[2] = target: T2, Full length human recombinant HDAC6 (Homo sapiens, UniProt Q9UBN7); assay: In vitro histone deacetylase assay, enzymatic HDAC6 (electrophoretic mobility shift assay); type: biochemical; settings: 1 nM HDAC6; 2 μM peptide substrate FAM-RHKK(Ac)—NH2; 25° C.; 12 concentrations; read-out: HDAC6 Activity Range (IC50)
T2 construct: Full length human recombinant HDAC6 and HDAC11 proteins were expressed in baculoviral system
T2 sequence (Q9UBN7 1-1215): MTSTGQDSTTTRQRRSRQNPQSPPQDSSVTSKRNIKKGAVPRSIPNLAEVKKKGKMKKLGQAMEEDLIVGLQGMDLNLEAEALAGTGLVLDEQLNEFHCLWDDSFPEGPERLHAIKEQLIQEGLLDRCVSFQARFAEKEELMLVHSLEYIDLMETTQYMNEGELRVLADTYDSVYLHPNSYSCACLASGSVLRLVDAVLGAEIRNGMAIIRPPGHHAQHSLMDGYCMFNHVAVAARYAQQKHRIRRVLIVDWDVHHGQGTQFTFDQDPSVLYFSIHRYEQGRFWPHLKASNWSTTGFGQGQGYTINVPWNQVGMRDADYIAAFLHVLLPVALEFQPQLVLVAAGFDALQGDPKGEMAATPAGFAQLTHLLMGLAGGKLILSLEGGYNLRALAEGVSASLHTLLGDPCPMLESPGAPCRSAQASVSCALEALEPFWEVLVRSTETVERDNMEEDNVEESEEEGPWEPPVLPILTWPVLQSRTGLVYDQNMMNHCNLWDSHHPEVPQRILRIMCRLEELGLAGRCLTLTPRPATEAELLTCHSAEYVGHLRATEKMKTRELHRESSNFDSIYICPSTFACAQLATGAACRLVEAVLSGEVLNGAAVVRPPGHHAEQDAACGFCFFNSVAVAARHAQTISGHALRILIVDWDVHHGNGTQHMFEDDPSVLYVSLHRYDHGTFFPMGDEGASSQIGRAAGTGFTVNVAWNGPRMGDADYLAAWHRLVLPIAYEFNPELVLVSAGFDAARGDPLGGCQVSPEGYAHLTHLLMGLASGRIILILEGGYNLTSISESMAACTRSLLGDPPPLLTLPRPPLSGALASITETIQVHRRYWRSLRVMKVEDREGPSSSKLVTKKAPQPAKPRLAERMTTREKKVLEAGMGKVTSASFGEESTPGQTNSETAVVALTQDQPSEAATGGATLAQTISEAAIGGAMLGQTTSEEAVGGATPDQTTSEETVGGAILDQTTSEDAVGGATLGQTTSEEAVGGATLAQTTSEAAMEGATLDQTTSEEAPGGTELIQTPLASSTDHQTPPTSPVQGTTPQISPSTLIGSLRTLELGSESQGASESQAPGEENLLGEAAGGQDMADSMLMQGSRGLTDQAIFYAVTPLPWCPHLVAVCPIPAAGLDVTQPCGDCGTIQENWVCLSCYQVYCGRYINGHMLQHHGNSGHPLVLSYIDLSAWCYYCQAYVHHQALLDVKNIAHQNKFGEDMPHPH
Outline: as §1

Row | IC50 [1] | IC50 [2] | Structure (SMILES)
1 | ≤ 100 nM | ≤ 100 nM | O=C(NO)c1ccc2c(c1)C[C@]1(CC2)CCN(Cc2cccc(Cl)c2)C1=O [Compound I-101, (R)-1′-(3-chlorobenzyl)-N-hydroxy-2′-oxo-3,4-dihydro-1H-spiro[naphthalene-2,3′-pyrrolidine]-7-carboxamide]
2 | ≤ 100 nM | ≤ 100 nM | COc1ccc(CN2CC[C@]3(CCc4ccc(C(=O)NO)cc4C3)C2=O)cc1 [Compound I-102, (R)—N-hydroxy-1′-(4-methoxybenzyl)-2′-oxo-3,4-dihydro-1H-spiro[naphthalene-2,3′-pyrrolidine]-7-carboxamide]
3 | ≤ 100 nM | ≤ 100 nM | O=C(NO)c1ccc2c(c1)C[C@]1(CC2)CCN(Cc2ccccc2F)C1=O [Compound I-103, (R)-1′-(2-fluorobenzyl)-N-hydroxy-2′-oxo-3,4-dihydro-1H-spiro[naphthalene-2,3′-pyrrolidine]-7-carboxamide]
4 | ≤ 100 nM | ≤ 100 nM | O=C(NO)c1ccc2c(c1)C[C@]1(CC2)CCN(Cc2ccc3ccccc3c2)C1=O [Compound I-104, (R)—N-hydroxy-1′-(naphthalen-2-ylmethyl)-2′-oxo-3,4-dihydro-1H-spiro[naphthalene-2,3′-pyrrolidine]-7-carboxamide]
5 | ≤ 100 nM | ≤ 100 nM | O=C(NO)c1ccc2c(c1)C[C@]1(CC2)CCN(Cc2ccccc2OC(F)F)C1=O [Compound I-105, (R)-1′-(2-(difluoromethoxy)benzyl)-N-hydroxy-2′-oxo-3,4-dihydro-1H-spiro[naphthalene-2,3′-pyrrolidine]-7-carboxamide]
6 | ≤ 100 nM | ≤ 100 nM | O=C(NO)c1ccc2c(c1)C[C@]1(CC2)CCN(c2ccc(Oc3ccccc3)cc2)C1=O [Compound I-106, (R)—N-hydroxy-2′-oxo-1′-(4-phenoxyphenyl)-3,4-dihydro-1H-spiro[naphthalene-2,3′-pyrrolidine]-7-carboxamide]
7 | ≤ 100 nM | ≤ 100 nM | O=C(NO)c1ccc2c(c1)C[C@]1(CC2)CCN(c2cnc3ccccc3c2)C1=O [Compound I-107, (R)—N-hydroxy-2′-oxo-1′-(quinolin-3-yl)-3,4-dihydro-1H-spiro[naphthalene-2, 3′-pyrrolidine]-7-carboxamide]
8 | > 500 nM | ≤ 100 nM | O=C(NO)c1ccc2c(c1)C[C@]1(CC2)CCN(c2cccc3c2OCC3)C1=O [Compound I-108, (R)-1′-(2,3-dihydrobenzofuran-7-yl)-N-hydroxy-2′-oxo-3,4-dihydro-1H-spiro[naphthalene-2,3′-pyrrolidine]-7-carboxamide]
9 | > 500 nM | ≤ 100 nM | Cc1nn(C)cc1N1CC[C@]2(CCc3ccc(C(=O)NO)cc3C2)C1=O [Compound I-109, (R)-1′-(1,3-dimethyl-1H-pyrazol-4-yl)-N-hydroxy-2′-oxo-3,4-dihydro-1H-spiro[naphthalene-2,3′-pyrrolidine]-7-carboxamide]
10 | 100 to 500 nM | ≤ 100 nM | O=C(NO)c1ccc2c(c1)C[C@]1(CC2)CCN(c2ccc3nccn3c2)C1=O [Compound I-110, (R)—N-hydroxy-1′-(imidazo[1,2-a]pyridin-6-yl)-2′-oxo-3,4-dihydro-1H-spiro[naphthalene-2,3′-pyrrolidine]-7-carboxamide]
11 | 100 to 500 nM | ≤ 100 nM | O=C(NO)c1ccc2c(c1)C[C@]1(CC2)CCN(c2cnc3ccccn23)C1=O [Compound I-111, (R)—N-hydroxy-1′-(imidazo[1,2-a]pyridin-3-yl)-2′-oxo-3,4-dihydro-1H-spiro[naphthalene-2,3′-pyrrolidine]-7-carboxamide]
12 | > 500 nM | ≤ 100 nM | O=C(NO)c1ccc2c(c1)C[C@@]1(CC2)CCN(c2ccc(Cl)c(Cl)c2)C1=O [Compound I-112, (S)-1′-(3,4-dichlorophenyl)-N-hydroxy-2′-oxo-3,4-dihydro-1H-spiro[naphthalene-2,3′-pyrrolidine]-7-carboxamide]
13 | > 500 nM | ≤ 100 nM | Cc1ccc(N2CC[C@@]3(CCc4ccc(C(=O)NO)cc4C3)C2=O)c(C)c1 [Compound I-113, (S)-1′-(2,4-dimethylphenyl)-N-hydroxy-2′-oxo-3,4-dihydro-H-spiro[naphthalene-2,3′-pyrrolidine]-7-carboxamide]
14 | > 500 nM | ≤ 100 nM | COc1ccccc1N1CC[C@@]2(CCc3ccc(C(=O)NO)cc3C2)C1=O [Compound I-114, (S)—N-hydroxy-1′-(2-methoxyphenyl)-2′-oxo-3,4-dihydro-1H-spiro[naphthalene-2,3′-pyrrolidine]-7-carboxamide]
15 | > 500 nM | ≤ 100 nM | O=C(NO)c1ccc2c(c1)C[C@@]1(CC2)CCN(c2ccc3c(c2)OCO3)C1=O [Compound I-115, (S)-1′-(benzo[d][1,3]dioxol-5-yl)-N-hydroxy-2′-oxo-3,4-dihydro-1H-spiro[naphthalene-2,3′-pyrrolidine]-7-carboxamide]
16 | > 500 nM | ≤ 100 nM | O=C(NO)c1ccc2c(c1)C[C@@]1(CC2)CCN(c2ccc(Oc3ccccc3)cc2)C1=O [Compound I-116, (S)—N-hydroxy-2′-oxo-1′-(4-phenoxyphenyl)-3,4-dihydro-1H-spiro[naphthalene-2,3′-pyrrolidine]-7-carboxamide]
17 | > 500 nM | ≤ 100 nM | O=C(NO)c1ccc2c(c1)C[C@]1(CC2)CCN(c2cccc(OCCN3CCOCC3)c2)C1=O [Compound I-117, (R)—N-hydroxy-1′-(3-(2-morpholinoethoxy)phenyl)-2′-oxo-3,4-dihydro-1H-spiro[naphthalene-2,3′-pyrrolidine]-7-carboxamide]
18 | > 500 nM | ≤ 100 nM | O=C(NO)c1ccc2c(c1)C[C@@]1(CC2)CCN(c2cnc3ccccc3c2)C1=O [Compound I-118, (S)—N-hydroxy-2′-oxo-1′-(quinolin-3-yl)-3,4-dihydro-1H-spiro[naphthalene-2,3′-pyrrolidine]-7-carboxamide]
19 | > 500 nM | ≤ 100 nM | CN(C)CCc1ccc(N2CC[C@@]3(CCc4ccc(C(=O)NO)cc4C3)C2=O)cc1 [Compound I-119, (S)-1′-(4-(2-(dimethylamino)ethyl)phenyl)-N-hydroxy-2′-oxo-3,4-dihydro-1H-spiro[naphthalene-2,3′-pyrrolidine]-7-carboxamide]
20 | > 500 nM | ≤ 100 nM | CN1CC[C@]2(CCc3ccc(C(=O)NO)cc3C2)C1=O [Compound I-120, (R)—N-hydroxy-1′-methyl-2′-oxo-3,4-dihydro-1H-spiro[naphthalene-2,3′-pyrrolidine]-7-carboxamide]
21 | > 500 nM | ≤ 100 nM | CN1CC[C@@]2(CCc3ccc(C(=O)NO)cc3C2)C1=O [Compound I-121, (S)—N-hydroxy-1′-methyl-2′-oxo-3,4-dihydro-1H-spiro[naphthalene-2,3′-pyrrolidine]-7-carboxamide]
22 | ≤ 100 nM | ≤ 100 nM | Cc1ccc(CN2CC[C@@]3(CCc4ccc(C(=O)NO)cc4C3)C2=O)cc1 [Compound I-122, (S)—N-hydroxy-1′-(4-methylbenzyl)-2′-oxo-3,4-dihydro-1H-spiro[naphthalene-2,3′-pyrrolidine]-7-carboxamide]
